# Legend:
# human Edg-1(S1P1) [1] = biological target: T1, human Edg-1(S1P1) (Homo sapiens, UniProt P21453); assay: Cell system binding test: inhibition of [3H]-S1P binding to Edg-1(S1P1) gene transferred HEK-293 cells; conditions: [3H]-S1P 10 nM
# T1 construct: expressed in transfected cells; host or cells: HEK-293
# Procedure: Cells (1×10^5 cells/well) obtained as described above were seeded in poly-L-lysine-coated 96-well plates (Corning Incorporated), and then incubated in a 5% carbon dioxide gas incubator for 12 hours at 37° C. with the use of an MEM medium (Invitrogen Corporation) containing 100 U/mL of penicillin, 100 μg/mL of streptomycin, a 1% MEM nonessential amino acid solution, and 10% FCS. […] After the cells were washed twice with the buffer, they were solubilized with 100 μL of Opti Phase Supermix (produced by Perkin-Elmer), and measured for radioactivity by means of Micro Beta (produced by Perkin-Elmer).
# Inhibition rate(%)=[1−(A−C)/(B−C)]×100
# human Edg-1(S1P1) [2] = biological target: T1, human Edg-1(S1P1); assay: Membrane system binding test: inhibition of [33P]-S1P binding to the membrane fraction of Edg-1(S1P1) gene transferred HEK-293 cells
# Procedure: The membrane fraction was obtained by treating the cells with a solubilizing buffer (1 mM Tris/HCl, pH 7.2) for 10 minutes on ice, centrifuging the system (1000×g, 5 min) to remove insoluble fractions, and then centrifuging the system (40000×g, 30 min, 4° C.). The resulting membrane fraction was dissolved in a binding buffer (20 mM Tris-HCl, pH 7.4, 100 mM NaCl, 15 mM NaF, 2 mM deoxypyridoxine, 4 mg/mL fatty acid-free BSA), and then [^33P]-S1P (produced by ARC, end concentration 0.1 nM) and a DMSO solution of the test compound (end concentration of the compound: 10^−5 M, end concentration of DMSO: 0.1%) were added, followed by stirring the mixture and subsequently treating it for 1 hour at 30° C. Using a harvester, the membrane fraction was harvested onto unifilter-96GF/C filter (produced by Perkin-Elmer). Then, the filter with the membrane fraction was washed 4 times with the binding buffer, and the filter was dried. To the filter, 25 μL Microscint 0 (produced by Perkin-Elmer) was added, and the assay system was measured for radioactivity by means of Top Count NXT (Packard). Based on the radioactivity, the amount (A) of binding of [^33P]-S1P to the membrane fraction upon addition of the compound was calculated.
# The same procedure was performed in the absence of the test compound, and the amount (B) of binding of [^33P]-S1P was calculated. Moreover, the same procedure was performed in the absence of the test compound with the use of HEK-293 cells, to which the Edg-1(S1P1) gene had not been transferred, and the background amount (C) of binding of [^33P]-S1P was calculated.
# The Edg-1(S1P1) binding inhibition rate of the compound, calculated from the following equation, is shown in […]
# [3] = 10 μM compound, read-out: Cell system binding test % inhibition (10 μM)
# [4] = 10 μM compound, [33P]-S1P 0.1 nM, membrane fraction of Edg-1(S1P1) gene transferred HEK-293 cells, read-out: Membrane system binding test % inhibition (10 μM)
# [5] = test compound 10^-5 M, 1 hour, read-out: Edg-1(S1P1) binding inhibition rate (cell system binding test)
# [6] = test compound 10^-5 M, [33P]-S1P 0.1 nM, 1 hour at 30° C., HEK-293 membrane fraction, read-out: Edg-1(S1P1) binding inhibition rate (membrane system binding test)
# T1 sequence (P21453 whole entry): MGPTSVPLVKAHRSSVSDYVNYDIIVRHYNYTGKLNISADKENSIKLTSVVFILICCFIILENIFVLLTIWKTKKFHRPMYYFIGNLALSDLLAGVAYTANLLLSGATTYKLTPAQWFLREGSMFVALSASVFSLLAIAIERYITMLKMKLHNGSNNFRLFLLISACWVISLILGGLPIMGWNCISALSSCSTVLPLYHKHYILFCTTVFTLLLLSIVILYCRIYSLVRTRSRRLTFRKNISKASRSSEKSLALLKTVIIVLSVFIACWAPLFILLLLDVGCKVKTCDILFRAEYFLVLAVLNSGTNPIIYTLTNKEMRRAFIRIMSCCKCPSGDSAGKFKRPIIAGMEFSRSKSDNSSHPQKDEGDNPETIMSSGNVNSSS
SMILES,inhibition at 10 µM (human Edg-1(S1P1) [1]; [3]) [%],inhibition at 10 µM (human Edg-1(S1P1) [2]; [6]) [%],further results
CCn1c(SCC2CCC2)nnc1[C@@H](C)NS(=O)(=O)c1ccc(Cl)cc1 [Compound 34],91.5,,inhibition at 10 µM (human Edg-1(S1P1) [2]; [4]): 76.4%
CCn1c(OC)nnc1[C@@H](C)NS(=O)(=O)c1csc2ccccc12 [Compound 368],102,,inhibition at 10 µM (human Edg-1(S1P1) [2]; [4]): 85.1%
C=CCSc1nnc(C(Cc2ccccc2)NS(=O)(=O)c2ccc(Cl)cc2)n1C (stereo not drawn) [Compound 135],86.7,,inhibition at 10 µM (human Edg-1(S1P1) [2]; [4]): 96.9%
CCn1c(SCC(F)F)nnc1[C@@H](C)NS(=O)(=O)c1ccc(Cl)cc1 [Compound 57],92.6,,inhibition at 10 µM (human Edg-1(S1P1) [2]; [4]): 100%
CCn1c(SC)nnc1C(Cc1ccc(C)cc1)NS(=O)(=O)c1ccc(Cl)c(Cl)c1 (stereo not drawn) [Compound 523],,82.5,
CCn1c(OC)nnc1[C@@H](Cc1ccc(F)c(F)c1)NS(=O)(=O)c1ccc(Cl)c(Cl)c1 [Compound 549],,99.7,
CCCOc1nnc([C@@H](Cc2ccccc2)NS(=O)(=O)c2ccc(Cl)c(Cl)c2)n1CC [Compound 529],,100,
"CCCCCCCCCCCCC/C=C\C(O)C(N)COP(=O)(O)O (stereo not drawn) [[^33P]-S1P, reference compound]",,,"Kd (human Edg-1(S1P1) [2]; radioligand binding, membrane fraction, read-out: Kd of binding to human Edg-1(S1P1) gene transferred HEK-293 cell strain membrane fraction): 0.15 nM"
CCCOc1nnc([C@@H](Cc2ccc(Cl)c(Cl)c2)NS(=O)(=O)c2ccc(Cl)c(Cl)c2)n1CC [Compound 526],,88.9,
CCn1c(OCCCN2CCOCC2)nnc1[C@@H](Cc1ccccc1)NS(=O)(=O)c1ccc(Cl)c(Cl)c1 [Compound 538],,103,
CCCn1c(OC)nnc1[C@@H](Cc1ccccc1)NS(=O)(=O)c1ccc(Cl)c(Cl)c1 [Compound 554],,88,
CCn1c(SC)nnc1C(Cc1ccc(C(F)(F)F)cc1)NS(=O)(=O)c1ccc(Cl)c(Cl)c1 (stereo not drawn) [Compound 518],,83.5,
CCCOc1nnc([C@@H](Cc2ccc(OC)cc2)NS(=O)(=O)c2ccc(Cl)c(Cl)c2)n1CC [Compound 528],,,"Edg-1(S1P1) binding inhibition rate (membrane system binding test) (human Edg-1(S1P1) [2]; test compound 10^-5 M, [33P]-S1P 0.1 nM, 1 hour at 30° C., HEK-293 membrane fraction): 94.0%"
CCCOc1nnc([C@H](C)NS(=O)(=O)c2ccc(Cl)cc2)n1CC [Compound 184],,,inhibition at 10 µM (human Edg-1(S1P1) [2]; [4]): 44.4%
CCn1c(OC)nnc1[C@@H](Cc1ccccc1)NS(=O)(=O)c1ccc(Cl)c(Cl)c1 [Compound 507],,96.7,
CCn1c(OC)nnc1[C@@H](Cc1ccc(F)cc1)NS(=O)(=O)c1ccc(Cl)c(Cl)c1 [Compound 548],,99.8,
CCn1c(OC2CCC2)nnc1[C@@H](Cc1ccccc1)NS(=O)(=O)c1ccc(Cl)c(Cl)c1 [Compound 531],,100,
CCOc1nnc([C@@H](Cc2ccccc2)NS(=O)(=O)c2ccc(Cl)c(Cl)c2)n1CC [Compound 536],,98.4,
CCn1c(OCC2CC2)nnc1[C@@H](Cc1ccccc1)NS(=O)(=O)c1ccc(Cl)c(Cl)c1 [Compound 545],,101,
CCn1c(OC)nnc1[C@@H](Cc1ccccc1F)NS(=O)(=O)c1ccc(Cl)c(Cl)c1 [Compound 550],,98.6,
COc1nnc([C@@H](Cc2ccccc2)NS(=O)(=O)c2ccc(Cl)c(Cl)c2)n1C [Compound 553],,94.2,
CCn1c(OC)nnc1[C@@H](Cc1cc(F)cc(F)c1)NS(=O)(=O)c1ccc(Cl)c(Cl)c1 [Compound 552],,97.3,
CCn1c(OC)nnc1[C@@H](C)NS(=O)(=O)c1ccc(C)nc1 [Compound 281],,,inhibition at 10 µM (human Edg-1(S1P1) [2]; [4]): 75.5%
CCn1c(OC)nnc1[C@@H](C)NS(=O)(=O)c1ccc(-c2cnco2)s1 [Compound 345],88.5,,
CCOc1nnc([C@@H](C)NS(=O)(=O)c2ccc(Cl)cc2)n1C [Compound 540],,,inhibition at 10 µM (human Edg-1(S1P1) [1]; [5]): 96.3%
CCn1c(OC)nnc1[C@@H](C)NS(=O)(=O)c1ccc(C(C)(C)CC)cc1 [Compound 271],89.6,,
CCn1c(OC)nnc1[C@@H](C)NS(=O)(=O)c1c(C)cc(C)cc1C [Compound 225],94,,
CCn1c(OC)nnc1[C@@H](C)NS(=O)(=O)Cc1cccc(Cl)c1 [Compound 305],86.5,,

# Now from value to compound, other results behind:
inhibition at 10 µM (human Edg-1(S1P1) [1]; [3]) [%],inhibition at 10 µM (human Edg-1(S1P1) [2]; [6]) [%],SMILES,further results
80.8,,CCn1c(SCC2CCOC2)nnc1[C@@H](C)NS(=O)(=O)c1ccc(Cl)cc1 (stereo partly drawn) [Compound 13],inhibition at 10 µM (human Edg-1(S1P1) [2]; [4]): 43.6%
,64.9,CCn1c(OC(C)C)nnc1[C@@H](C)NS(=O)(=O)c1cccc(OC)c1 [Compound 481],inhibition at 10 µM (human Edg-1(S1P1) [1]; [5]): 96.3%
85.4,,CCn1c(SCc2ccccc2Cl)nnc1[C@@H](C)NS(=O)(=O)c1ccc(Cl)cc1 [Compound 42],inhibition at 10 µM (human Edg-1(S1P1) [2]; [4]): 98.8%
97.4,,CCn1c(OC)nnc1[C@@H](C)NS(=O)(=O)c1cc(Cl)sc1Cl [Compound 217],inhibition at 10 µM (human Edg-1(S1P1) [2]; [4]): 62.3%
84.7,,CCn1c(SCCCN2CCCC2=O)nnc1[C@@H](C)NS(=O)(=O)c1ccc(Cl)cc1 [Compound 79],inhibition at 10 µM (human Edg-1(S1P1) [2]; [4]): 94.9%
100,,CCn1c(OC)nnc1[C@@H](C)NS(=O)(=O)c1ccc(F)c(C(F)(F)F)c1 [Compound 321],inhibition at 10 µM (human Edg-1(S1P1) [2]; [4]): 99.7%
95.6,,CCOc1nnc([C@@H](C)NS(=O)(=O)c2cc(Cl)c(Cl)s2)n1CC [Compound 434],inhibition at 10 µM (human Edg-1(S1P1) [2]; [4]): 90.5%
,102,CCn1c(OCCCOC)nnc1[C@@H](Cc1ccccc1)NS(=O)(=O)c1ccc(Cl)c(Cl)c1 [Compound 535],
,89.7,CCCOc1nnc([C@@H](Cc2ccc(OC)cc2)NS(=O)(=O)c2ccc(Cl)c(Cl)c2)n1CC [Compound 527],
,85.4,CCn1c(OC)nnc1[C@@H](Cc1ccc(-c2ccccc2)cc1)NS(=O)(=O)c1ccc(Cl)c(Cl)c1 [Compound 547],
,98.3,CCn1c(OC2CCCCC2)nnc1[C@@H](Cc1ccccc1)NS(=O)(=O)c1ccc(Cl)c(Cl)c1 [Compound 534],
,101,CCn1c(OC)nnc1[C@@H](Cc1cccc(F)c1)NS(=O)(=O)c1ccc(Cl)c(Cl)c1 [Compound 551],
,53.8,CCn1c([C@@H](C)NS(=O)(=O)c2ccc(Cl)c(Cl)c2)nnc1S(C)(=O)=O [Compound 532],
,97.2,CCn1c(OCC(F)(F)F)nnc1C(Cc1ccccc1)NS(=O)(=O)c1ccc(Cl)c(Cl)c1 (stereo not drawn) [Compound 530],
,101,CCn1c(OC(C)C)nnc1[C@@H](Cc1ccccc1)NS(=O)(=O)c1ccc(Cl)c(Cl)c1 [Compound 537],
,96.9,CCn1c(OCc2ccccc2)nnc1[C@@H](Cc1ccccc1)NS(=O)(=O)c1ccc(Cl)c(Cl)c1 [Compound 546],
,98.9,CCn1c(OC2CCCC2)nnc1[C@@H](Cc1ccccc1)NS(=O)(=O)c1ccc(Cl)c(Cl)c1 [Compound 533],
82.2,,CCOc1nnc([C@@H](C)NS(=O)(=O)c2cnc(C)s2)n1CC [Compound 438],
,75,CCn1c(SC)nnc1C(Cc1ccc(Cl)c(Cl)c1)NS(=O)(=O)c1ccc(Cl)c(Cl)c1 (stereo not drawn) [Compound 524],
54.7,,CCCCCCCCCCS(=O)(=O)N[C@H](C)c1nnc(OC)n1CC [Compound 334],
,98,CCCOc1nnc([C@@H](Cc2ccc(C)cc2)NS(=O)(=O)c2ccc(Cl)c(Cl)c2)n1CC [Compound 525],

# Reference: US8022225B2, “Triazole derivative” (Taisho Pharmaceutical Co., Ltd, priority 2004, dated 2011)
